In patent publication US4581359A, “Pharmacological treatments with N-7-substituted derivatives of theophylline” (priority 1984, dated 1986):
“And” between values parts separate entries of the source, which are not always exact repeats. Equal values may be shown once. Read-outs that look alike come from different tables or passages of the source.

Legend:
[1] = Dyphylline intravenous infusion in rabbits: blood concentration, pharmacokinetics, toxicity (Example 1); type: in vivo, female New Zealand White rabbits
From the text: A high-pressure liquid chromatographic (HPLC) system consisted of a delivery pump (M-6000A, Waters Associates, Milford, Mass.), sample injection apparatus (Model U6K, Waters Associates, Milford, Mass.), 30-cm reverse phase column (μBondapak C18, Waters Associates, Milford, Mass.), UV detector (Model 440, Waters Associates, Milford, Mass.) with wavelength of 280 nm and a dual pen recorder (Soltec Co., Encino, Calif.) which were used at ambient temperature.
Both dyphylline and theophylline stock standard solutions were prepared to contain 10, 40, 80, 120, 150, 320 or 640 mg of each in 50 ml of distilled water. 20 μl of each was then added into 0.38 ml of rabbit blood to prepare working blood standard solutions.
The internal standard used was β-hydroxypropyl theophylline (Aldrich Chemical Co., Inc., Milwaukee, Wis.) in acetonitrile which was prepared in a 500 ml volumetric flask as a stock solution, and kept tightly sealed except during use throughout the experiment. Internal standard solution (0.4 ml) was added to an equal volume (0.4 ml) of sample to precipitate protein. After centrifuging for 10 minutes, the supernatant was injected into the HPLC. The HPLC operating conditions included a mobile phase composed of acetonitrile (6 percent V/V) in distilled water and a flow rate of 2.0 ml/min.
Typical log blood dyphylline concentration versus time plots, for each of the three rabbits following zero-order infusion of 250 mg over fifteen minutes are presented in FIG. 1. […] (1975). Parameters obtained from linear least square fitting of the terminal data to a one-compartment model appear in Table I. The fitted line of the data can be seen in FIG. 1.

in vivo = details: rabbit
Protocol: All experiments of this example were performed using female New Zealand White rabbits. These rabbits (2.4-3.6 kg) were housed in a controlled environment and allowed free access to water and food.
Before dosing with drug the rabbit ear hair was clipped and treated with hair remover lotion (sold under the trademark NAIR, Carter-Wallace, Inc., New York, N.Y.), a catheter (Quick-Cath, 20 Ga, Travenol Laboratories, Inc., Deerfield, Ill.) and sterile intermittent infusion plug were then inserted in the rabbit's ear vein for infusion. […] For each separate administration of theophylline, a suitable amount of aminophylline (40 mg/kg) was dissolved in distilled water to make 10 ml injectable solution which was administered into a rabbit's ear vein as a continuous infusion over a period of 15 minutes.
Blood samples were collected from an ear vein (in the opposite ear from the infusion) at predetermined time intervals. Before collecting each sample, the rabbit ear was treated topically with xylene to dilate the ear vein for convenient sample collection. Immediately after each blood sample was drawn, 0.4 ml of blood was transfered to the centrifuge tube and 0.4 ml of acetronitrile with appropriate internal standard was added to precipitate the protein and extract drug components. After vortexing well, the blood acetonitrile mixture was centrifuged at 3000×G for ten minutes, and 10 μl of supernatent solution was then injected into the HPLC.
The post infusion data of theophylline were fitted to a two-compartment open model using the same procedure as described above. Although samples were collected while infusion of dyphylline was continuing, only post infusion data were used for dyphylline pharmacokinetic analysis.

[2] = Single and combined intravenous methyl xanthines in rabbits: heart rate, deaths, plasma concentrations (Example 6); type: in vivo, female rabbits; details: one rabbit each; normal about 220 bpm
Protocol: T 40 mg/kg of aminophylline infused at the rate of 0.21 ml/min over 30
T/D 40 mg/kg of aminophylline infused at the rate of 0.21 ml/min over 30
T/E 40 mg/kg of aminophylline infused at the rate of 0.21 ml/min over 30
T/P 40 mg/kg of aminophylline infused at the rate of 0.21 ml/min over 30

[3] = Literature: pharmacokinetics of dyphylline and related derivatives in humans; details: human, in vivo, from Simons et al., read-out: Total Vd
From the text: Simons, et al., Allergy and Clin. Immunol. (1975) report the pharmacokinetics of dyphylline from seven different doses in seven patients and treat dyphylline as a one-compartment drug which means that Vc would be equal to Vd total since only one compartment is involved. This is, however, inconsistent with the data reported in the above-mentioned articles by Lawyer et al. Also, the data of Simons et al. (1975) can be used to generate the following lists wherein the estimated total volume of distribution of dyphylline (total Vd) is calculated from data presented by using the equation Vd=Dose/(Kel)(AUC): […]

[4] = Dyphylline 20 min intravenous infusion in two healthy male subjects: pharmacokinetics, blood pressure, pulse (Example 2); type: in vivo, human; details: bolus injection
[5] = cited from earlier work
[6] = Literature: pharmacokinetics of dyphylline and related derivatives in humans; details: human, in vivo; for Vd/F: po, analysis of Gisclon oral data
[7] = cited from earlier work; remark: listed apart in the source
[8] = cited from earlier work; remark: listed apart in the source
[9] = cited from earlier work; remark: listed apart in the source
[10] = cited from earlier work; remark: listed apart in the source
[11] = rabbit, blood, iv, 250 mg, 250.0 mg/rabbit over 15 minutes, alone, rabbits 1-3, mean
[12] = intravenous, per day per 70 kg person, Zuidema

## Cn1c(=O)c2c(ncn2CC(O)CO)n(C)c1=O (centres unmarked) [dyphylline, dihydroxypropyl theophylline]
[1]; 250.0 mg/rabbit zero-order infusion over 15 minutes, alone, rabbits 1-3, mean, 15 min
  Ccut, blood concentration at the time the infusion was stopped: 81.82 µg/mL and 112.5 µg/mL and 91.70 µg/mL
[1]; blood concentrations about 80 to 112 mcg/ml
  signs of toxicity: did not exhibit any signs of toxicity
[1]; [11]
  half-life: 35.6 min
  k el: 0.000325 s⁻¹
[1]; rabbit, blood, iv, 250 mg, 250.0 mg/rabbit over 15 minutes, alone, rabbits 1-3, mean, read-out: Vd1
  Vd: 0.895 L/kg
[1]; rabbit, blood, iv, 250 mg, 250.0 mg/rabbit zero-order infusion over 15 minutes, alone, rabbits 1-3, mean, read-out: Ccut, blood concentration at the time the infusion was stopped
  concentration at 0.25 h: 80.8 µg/mL
[1]; rabbit, blood, iv, 250 mg, 15 minutes, three rabbits, read-out: blood concentration when the infusion was stopped
  concentration at 0.25 h: 80 to 112 µg/mL
[1]; rabbit, blood, iv, 250 mg, Table I, read-out: average apparent volume of distribution of dyphylline administered alone
  Vd: 0.82 L/kg
In vivo
  effect of dyphylline on half-life of theophylline: does not appear to alter the half-life of theophylline
  plasma concentration of dyphylline not toxic in the presence of about 100 mcg/ml theophylline: about 600 mcg/ml
In vivo; iv, 666.7 mg/kg, average apparent volume of distribution of dyphylline administered with theophylline
  Vd: 0.41 L/kg
[2]
  heart rate, individual drug treatment: 76 bpm
[3]; 10 mg/kg, 10 mg/kg alcoholic solution with glycerol-guaiacolate solution
  Vd: 0.77 L/kg
[3]; 10 mg/kg, 10 mg/kg alcoholic solution
  Vd: 0.98 L/kg
[3]; 10 mg/kg, 10 mg/kg aqueous
  Vd: 0.93 L/kg
[3]; im, 5 mg/kg, 5 mg/kg intramuscular
  Vd/F: 0.58 L/kg
[3]; im, 10 mg/kg, 10 mg/kg intramuscular
  Vd/F: 0.8 L/kg
[3]; po, 5 mg/kg, 5 mg/kg tablet
  Vd/F: 0.58 L/kg
[3]; po, 10 mg/kg, 10 mg/kg tablet
  Vd/F: 0.72 L/kg
[4]
  half-time of clearance from the central compartment: four to nine
[5]; Joos et al.
  time post dosing to achieve plasma concentrations: 90 min
[5]; combined with theophylline and proxyphylline (Bracher; Werdermann)
  plasma concentration of dyphylline: less than 3.0 mcg/ml
[5]; dyphylline and proxyphylline (Joos et al.), 90 min
  plasma concentration, each drug: about 13 mcg/ml
[6]; from Simons et al., read-out: Vd, range over dosage forms
  Vd: 0.58 to 0.98 L/kg
[6]; 77.0 kg, complete bioavailability, read-out: central compartment volume
  Vd/F: ~52 L
[6]; 77.0 kg, complete bioavailability, read-out: total volume of distribution
  Vd/F: ~67 L
[6]; 84 percent bioavailability, read-out: Vc
  Vd/F: ~0.6 L/kg
[6]; 84 percent bioavailability, read-out: Vd
  Vd/F: ~0.73 L/kg
[6]; bioavailability 84 percent, read-out: central compartment volume
  Vd/F: ~44 L
[6]; bioavailability 84 percent, read-out: total volume of distribution
  Vd/F: ~56 L
[6]; total bioavailability, read-out: Vc
  Vd/F: ~0.68 L/kg
[6]; total bioavailability, read-out: Vd total
  Vd/F: ~0.87 L/kg
[7]
  water solubility: high water solubility
[8]; blood, calculated by Zuidema from data of Svedmyr
  lowest therapeutic response toxic level in steady state: 90 µg/mL
[8]; [12]
  calculated probable dosage to produce 40 mcg/ml in blood: 13.7 gm
  calculated probable dosage to produce 90 mcg/ml in blood: 30.8 gm
[9]; 400 mg intravenous, about 48 mcg/ml, Zuidema 1981
  adverse effect: no adverse effect
[9]; 400 mg intravenous, very short time, Zuidema 1981
  plasma concentration: about 48 mcg/ml
[9]; Gisclon et al.
  protein binding: may bind nonlinearly to protein
[9]; Lawyer
  intravenous dyphylline accounted for in the urine: forty-four
[9]; intravenous over ten minutes, one patient, Lawyer
  peak plasma concentration: 17.4 µg/mL
[9]; literature
  conversion to theophylline in the body: not converted to theophylline in the body
  tissue distribution: penetrate the central nervous system, to infiltrate heart tissue and to distribute to lung tissue
[9]; person, 73 kg, Lawyer
  initial distribution volume: 26.2 L
  total or steady state volume of distribution: 32.1 L
[10]; 25 mg/kg
  average volume of distribution: 1.01 L/kg
[10]; rabbit, in vivo
  toxicity at 30 to 50 mcg/ml: not toxic
